Measured values published in patent US20180008629A1, “Compositions and Methods for Treating NLRP3 Inflammasome-Related Diseases and Disorders” (priority 2015, published 2018).

Columns and labels:
BMDMs = assay: Intracellular K+ measurement in BMDMs (APG-1 dye, ICP-MS); type: cell-based, mouse; settings: LPS primed BMDMs
Experimental: The BMDM proliferation in response to BHB treatment was analyzed using the MTT assay according to manufacturer's instructions. The BMDM were incubated with Asante Potassium Green 1 (APG-1) which is a fluorescent indicator with a Kd for measuring cytosolic K+ concentration. It has non-ratiometric large fluorescence dynamic range allows sensing of even small changes in K+ concentration. Optimal excitation was recorded at 517 nm. In addition, the K+ was measured in BMDMs using an ElementXR or Agilent 7700 Inductively Coupled Mass Spectrometry (ICP-MS) using previously described methods (Muñoz-Planillo et al., 2013, Immunity 38:1142-1153). For error analysis, samples and standard solutions were run in duplicate.

[1] = test system: neutrophil hyperactivation; assay: MSU peritonitis model in old mice fed ketogenic diet; type: in vivo, mouse; settings: ketogenic diet one week prior to MSU challenge
Experimental: Old mice were fed a ketogenic diet for one week prior to MSU challenge to induce neutrophil infiltration and inflammasome activation (FIG. 16A). Body weights and blood BHB concentrations were measured daily. Four hours after MSU injection, total peritoneal cells were collected and analyzed by FACS to enumerate total neutrophil infiltration (FIG. 16B). Gene expression within peritoneal cells was measured by RT-PCR (FIG. 16C). Expression was normalized to Gapdh expression and data are represented as expression relative to adults. Data are pooled from two independent experiments (FIGS. 16B and 16C). Statistical differences were calculated by 2-way ANOVA (FIG. 16A) or 1-way ANOVA (FIG. 16B). […]
Mice were fed a ketogenic diet for 1 week prior to an increase in BHB levels and then infection or peritonitis was induced by injection of monosodium urate. Body weights and blood BHB concentrations were measured daily in old mice during ketogenic diet feeding, prior to MSU injection (FIG. 19A). […] The peritoneal cells were isolated and pro-inflammatory cytokine Il1b, Nlrp3 and Tnf gene expression was measured by RT-PCR (FIG. 19B). […] Blood BHB levels were measured in adult mice 24 hr post-infection with Staphylococcus aureus (FIG. 19C). Total cells collected from brocho-aleveolar lavage BAL fluid from lungs 24 hr post-infection were quantified (FIG. 19D). […]

AIM2 inflammasome = AIM2 inflammasome (Mus musculus, UniProt Q91VJ1); type: cell-based
NLRP3 inflammasome = NLRP3 inflammasome (Mus musculus, UniProt Q8R4B8); assay: IL-1β secretion from mouse neutrophils after NLRP3 activation (western blot); type: cell-based; design: endogenous in cells; host or cells: mouse bone marrow neutrophils (A15)
Experimental: Neutrophils from young (3 month) and aged (24 months) mice were stimulated with LPS, and the NLRP3 inflammasome was activated by treatment with ATP and C6 Ceramide. BHB was provided at the same time of ATP and ceramide treatment.
Adult and old neutrophils were analyzed for ketogenic and ketolytic enzyme expression. Gene expression was measured by RT-PCR (FIG. 14A). Expression was normalized to Gapdh expression and was represented as expression relative to adult gene expression. SCOT, HMGCL, and β-Actin protein expression were assessed in unstimulated adult and old neutrophils by Western blot (FIG. 14B). Dose response to BHB was measured by assaying IL-1β secretion in supernatants from adult neutrophils (FIG. 14C). Western blots were generated of IL-1β in supernatants from adult and old neutrophils stimulated with LPS+ATP or LPS+ceramide (FIG. 14D). In FIG. 14A, each dot represents a pooled sample of n=2 mice. In FIGS. 14B-14D, each blot is representative of at least two independent experiments. Each sample analyzed by Western blot is pooled from n=4-6 mice per experiment.
Adult neutrophils were stimulated with LPS+ATP+BHB to test the mechanism by which BHB blocks IL-1β secretion. LPS-primed neutrophils were stimulated with ATP in the presence of BHB or niacin (FIG. 15A). Supernatants were analyzed for IL-1β secretion by Western blot. Wildtype of mCAT neutrophils were stimulated with LPS+ATP+BHB (FIG. 15B). Supernatants were analyzed for IL-1β secretion by Western blot. Catalase and β-Actin expression were measured by Western blot in neutrophil cell lysates. LPS-primed neutrophils were stimulated with ATP+BHB in the presence of 3-MA or AOA as indicated (FIG. 15C). Supernatants were analyzed for IL-1β secretion by Western blot. The enantiomer S-BHB was tested in a dose response for the ability to inhibit inflammasome activation (FIG. 15D). Supernatants were analyzed for IL-1β secretion by Western blot. FCAS neutrophils were incubated with 4-OHT followed by LPS priming. […] Supernatants were analyzed for IL-1β secretion by Western blot. […]

human neutrophils = assay: IL-1β secretion from human peripheral blood neutrophils (ELISA); type: cell-based; settings: peripheral blood neutrophils from adult (30-40 years) and old (65-75 years)
Experimental: BHB was also observed to inhibit IL1B production from human neutrophils irrespective of age. Peripheral blood neutrophils from adult (30-40 years) and old (65-75 years) were enriched and stimulated as indicated (FIG. 20). IL-1β secretion was measured in culture supernatants by ELISA. Data are expressed as mean±S.E.M (*p<0.01).

Sequence of NLRP3 inflammasome (Q8R4B8 whole entry): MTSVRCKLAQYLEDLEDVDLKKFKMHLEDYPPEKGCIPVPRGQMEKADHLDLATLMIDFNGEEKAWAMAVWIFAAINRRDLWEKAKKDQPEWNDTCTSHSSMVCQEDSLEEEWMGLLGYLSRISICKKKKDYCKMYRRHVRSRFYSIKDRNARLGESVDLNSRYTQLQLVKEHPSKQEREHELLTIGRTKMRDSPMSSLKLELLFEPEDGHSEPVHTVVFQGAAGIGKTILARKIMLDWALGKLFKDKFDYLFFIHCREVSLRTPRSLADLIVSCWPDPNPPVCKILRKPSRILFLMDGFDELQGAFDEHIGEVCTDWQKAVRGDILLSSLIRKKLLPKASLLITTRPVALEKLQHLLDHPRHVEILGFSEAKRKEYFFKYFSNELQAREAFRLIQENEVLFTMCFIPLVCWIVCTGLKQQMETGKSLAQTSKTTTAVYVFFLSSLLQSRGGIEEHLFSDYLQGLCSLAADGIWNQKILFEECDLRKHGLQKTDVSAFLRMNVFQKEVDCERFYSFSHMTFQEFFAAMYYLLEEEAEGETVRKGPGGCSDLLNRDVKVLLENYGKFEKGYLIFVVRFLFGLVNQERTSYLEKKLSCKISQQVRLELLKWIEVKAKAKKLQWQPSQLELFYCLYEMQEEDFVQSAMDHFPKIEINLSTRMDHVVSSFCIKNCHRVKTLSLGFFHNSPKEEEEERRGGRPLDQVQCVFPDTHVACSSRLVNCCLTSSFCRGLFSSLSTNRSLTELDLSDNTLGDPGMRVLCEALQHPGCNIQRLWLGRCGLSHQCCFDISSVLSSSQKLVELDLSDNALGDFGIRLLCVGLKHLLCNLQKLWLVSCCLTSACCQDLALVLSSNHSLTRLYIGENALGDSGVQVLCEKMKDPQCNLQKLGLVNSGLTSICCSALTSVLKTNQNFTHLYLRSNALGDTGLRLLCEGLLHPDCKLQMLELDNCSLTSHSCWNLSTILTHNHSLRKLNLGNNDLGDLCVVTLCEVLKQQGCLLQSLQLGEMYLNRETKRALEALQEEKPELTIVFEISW
Sequence of AIM2 inflammasome (Q91VJ1 whole entry, looked up): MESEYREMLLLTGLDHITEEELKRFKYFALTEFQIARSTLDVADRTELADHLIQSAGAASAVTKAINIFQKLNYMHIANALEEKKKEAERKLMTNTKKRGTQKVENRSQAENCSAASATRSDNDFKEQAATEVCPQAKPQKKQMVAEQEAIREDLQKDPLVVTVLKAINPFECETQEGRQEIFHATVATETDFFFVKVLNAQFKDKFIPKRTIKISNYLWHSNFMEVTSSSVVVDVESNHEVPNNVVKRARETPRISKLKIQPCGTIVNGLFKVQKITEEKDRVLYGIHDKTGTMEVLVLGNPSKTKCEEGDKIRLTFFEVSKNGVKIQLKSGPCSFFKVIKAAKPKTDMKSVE

CC(O)CC(=O)O (stereo not drawn) [BHB, β-hydroxybutyrate]
decline in intracellular K+ in response to MSU (BMDMs; BHB 1 h): prevented the decline | decline in intracellular K+ in response to ATP (BMDMs; BHB (10 mM)): prevented the decline | decline in intracellular K+ in response to ceramides (BMDMs; C6 ceramide and BHB 1 h): prevented the decline | neutrophil hyperactivation in peritonitis [1]: prevented | AIM2 inflammasome induced IL-1β activation (AIM2 inflammasome): did not inhibit | NLRP3 inflammasome activation in neutrophils (NLRP3 inflammasome; adult and old mouse neutrophils, LPS+ATP or LPS+ceramide, IL-1β in supernatants): inhibit | mechanism of inhibitory effects in neutrophils (NLRP3 inflammasome; adult neutrophils stimulated with LPS+ATP+BHB): physically blocking inflammasome assembly | IL-1β production after NLRP3 activation in neutrophils (NLRP3 inflammasome; neutrophils from young (3 month) and aged (24 month) mice, LPS, ATP and C6 Ceramide, 10 mM BHB): blocks | IL1B production from human neutrophils (human neutrophils): inhibit
